How the values were obtained:
Assay type in all cases: biochemical
[1] = molecular target: T1, PI3Kalpha (Homo sapiens, UniProt P42336); assay: Human PI3Kα enzyme assay (HTRF); details: for inhibition at 1.11 µM: read-out: PI3Kalpha % inh; for PI3Kalpha % inh: at 1.11 μM
T1 construct: His (N); host or cells: SF9 insect cells (baculovirus)
Summary of the method: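 His-tagged p110α co-expressed with p85 in Sf9 cells was reacted for 30 min at room temperature in pH 7.00 Hepes buffer with 10 mM MgCl2. Addition solutions held 25 uM ATP, 3.5 uM di-C8 PI(4,5)P2 and 0.4875 nM enzyme. The reaction was quenched with EDTA/biotin-PIP3 and detected by HTRF (GST-GRP-1 PH domain, streptavidin-XL, Eu anti-GST) after 1 h.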

[2] = molecular target: T2, PI3Kbeta (Homo sapiens, UniProt P42338); assay: Human PI3K beta enzyme assay (HTRF, as for PI3K alpha); details: for inhibition at 1.11 µM: read-out: PI3Kbeta % inh; for IC50: read-out: IC50 (inhibit PI3Kbeta); for inhibition at 1.11 µM / PI3Kbeta % inh: at 1.11 μM
T2 construct: His (N); host or cells: SF9 insect cells (baculovirus)
T2 sequence (P42338 whole entry): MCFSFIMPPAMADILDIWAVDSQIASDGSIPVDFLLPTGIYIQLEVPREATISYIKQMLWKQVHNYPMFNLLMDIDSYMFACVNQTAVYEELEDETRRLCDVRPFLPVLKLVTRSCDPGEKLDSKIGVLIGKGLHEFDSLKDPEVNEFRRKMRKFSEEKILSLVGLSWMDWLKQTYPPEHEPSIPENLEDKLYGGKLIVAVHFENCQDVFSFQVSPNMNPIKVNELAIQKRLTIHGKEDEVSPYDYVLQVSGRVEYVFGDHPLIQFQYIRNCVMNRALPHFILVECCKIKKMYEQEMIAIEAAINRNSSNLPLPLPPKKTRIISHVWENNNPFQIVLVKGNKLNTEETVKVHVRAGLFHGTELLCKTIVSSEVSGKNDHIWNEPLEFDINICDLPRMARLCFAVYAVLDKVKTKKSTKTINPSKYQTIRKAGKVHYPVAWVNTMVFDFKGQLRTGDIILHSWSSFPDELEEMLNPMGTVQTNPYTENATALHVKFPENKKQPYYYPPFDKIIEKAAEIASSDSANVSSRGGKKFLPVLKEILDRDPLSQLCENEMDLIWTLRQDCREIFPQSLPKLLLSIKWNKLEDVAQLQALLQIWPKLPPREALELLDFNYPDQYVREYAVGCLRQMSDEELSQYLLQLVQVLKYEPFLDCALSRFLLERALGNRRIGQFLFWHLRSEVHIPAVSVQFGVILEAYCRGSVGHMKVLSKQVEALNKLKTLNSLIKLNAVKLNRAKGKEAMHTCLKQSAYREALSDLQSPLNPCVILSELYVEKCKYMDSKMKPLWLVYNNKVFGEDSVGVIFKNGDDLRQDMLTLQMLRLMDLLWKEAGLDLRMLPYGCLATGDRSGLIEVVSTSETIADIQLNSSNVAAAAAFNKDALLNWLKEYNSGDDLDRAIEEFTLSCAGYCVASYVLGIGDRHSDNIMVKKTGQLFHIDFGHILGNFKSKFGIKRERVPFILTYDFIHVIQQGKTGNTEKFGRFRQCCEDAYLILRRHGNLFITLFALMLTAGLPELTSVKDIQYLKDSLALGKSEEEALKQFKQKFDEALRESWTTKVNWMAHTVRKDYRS
T2 sequence (P27986 whole entry partner): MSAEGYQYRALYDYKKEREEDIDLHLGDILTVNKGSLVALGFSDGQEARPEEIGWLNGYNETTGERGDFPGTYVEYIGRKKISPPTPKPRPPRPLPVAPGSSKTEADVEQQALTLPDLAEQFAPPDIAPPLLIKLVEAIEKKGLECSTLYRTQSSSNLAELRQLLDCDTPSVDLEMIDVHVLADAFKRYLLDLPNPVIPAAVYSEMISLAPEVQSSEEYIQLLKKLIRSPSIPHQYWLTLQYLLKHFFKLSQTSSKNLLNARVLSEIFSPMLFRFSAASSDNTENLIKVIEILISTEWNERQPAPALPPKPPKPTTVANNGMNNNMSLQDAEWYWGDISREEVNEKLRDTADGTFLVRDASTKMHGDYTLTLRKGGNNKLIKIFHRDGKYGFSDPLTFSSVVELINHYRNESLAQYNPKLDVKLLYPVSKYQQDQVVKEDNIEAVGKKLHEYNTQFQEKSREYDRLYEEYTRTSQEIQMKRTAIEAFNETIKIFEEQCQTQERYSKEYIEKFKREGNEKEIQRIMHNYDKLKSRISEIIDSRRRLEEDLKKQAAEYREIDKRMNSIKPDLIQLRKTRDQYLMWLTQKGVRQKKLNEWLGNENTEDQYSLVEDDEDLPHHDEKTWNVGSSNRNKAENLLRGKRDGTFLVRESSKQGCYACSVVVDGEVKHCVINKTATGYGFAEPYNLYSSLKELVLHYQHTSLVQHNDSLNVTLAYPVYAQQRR
Summary of the method: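 N-His p110β/δ co-expressed with untagged p85 in Sf9, p110γ alone. Enzyme 5.25 nM (β), 0.75 nM (δ), 5 nM (γ), with ATP 25 uM and di-C8 PI(4,5)P2 3.5 uM (added-solution levels), pH 7.00, 30 min RT. HTRF read-out: biotin-PIP3, GST-GRP-1 PH domain, Eu anti-GST, streptavidin-XL.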

[3] = molecular target: T3, PI3Kgamma (Homo sapiens, UniProt P48736); assay: Human PI3K gamma enzyme assay (HTRF, as for PI3K alpha); details: for inhibition at 1.11 µM: read-out: PI3Kgamma % inh; for PI3Kgamma % inh: at 1.11 μM
T3 construct: His (N); host or cells: SF9 insect cells (baculovirus)
T3 sequence (P48736 whole entry): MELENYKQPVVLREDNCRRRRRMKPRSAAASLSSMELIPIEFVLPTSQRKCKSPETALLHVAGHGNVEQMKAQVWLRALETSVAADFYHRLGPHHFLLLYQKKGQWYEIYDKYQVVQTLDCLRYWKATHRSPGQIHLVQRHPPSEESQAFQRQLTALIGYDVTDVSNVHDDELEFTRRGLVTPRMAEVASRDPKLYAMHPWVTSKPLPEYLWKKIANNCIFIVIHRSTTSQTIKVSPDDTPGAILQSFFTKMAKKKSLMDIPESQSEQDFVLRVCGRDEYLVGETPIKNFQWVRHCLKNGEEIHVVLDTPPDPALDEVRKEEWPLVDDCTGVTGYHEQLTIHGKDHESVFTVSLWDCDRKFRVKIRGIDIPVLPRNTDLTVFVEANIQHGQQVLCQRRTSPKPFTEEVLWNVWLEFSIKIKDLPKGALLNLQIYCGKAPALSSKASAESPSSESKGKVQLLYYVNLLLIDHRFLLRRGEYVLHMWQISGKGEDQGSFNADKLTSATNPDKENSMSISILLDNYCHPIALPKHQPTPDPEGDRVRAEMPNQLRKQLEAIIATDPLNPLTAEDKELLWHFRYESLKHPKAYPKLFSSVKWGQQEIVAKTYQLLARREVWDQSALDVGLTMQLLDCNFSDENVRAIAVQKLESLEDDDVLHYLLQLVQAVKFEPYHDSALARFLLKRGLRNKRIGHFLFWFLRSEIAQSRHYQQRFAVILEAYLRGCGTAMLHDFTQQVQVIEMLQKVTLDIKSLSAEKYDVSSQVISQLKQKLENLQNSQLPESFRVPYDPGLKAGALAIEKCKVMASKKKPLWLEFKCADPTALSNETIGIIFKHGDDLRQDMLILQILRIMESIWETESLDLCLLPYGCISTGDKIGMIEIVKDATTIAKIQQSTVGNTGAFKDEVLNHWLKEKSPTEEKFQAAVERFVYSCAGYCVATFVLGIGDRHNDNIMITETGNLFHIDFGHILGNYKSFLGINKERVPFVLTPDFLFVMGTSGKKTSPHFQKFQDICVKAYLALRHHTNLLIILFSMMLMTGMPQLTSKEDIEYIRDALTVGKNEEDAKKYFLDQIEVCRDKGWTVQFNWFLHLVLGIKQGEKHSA
Excerpt: (§1) The catalytic subunits of PI3Ks are cloned into either pDEST8(p110 alpha) or pDEST10(p110beta, p110delta, and p110gamma) as N-terminal His tagged fusion proteins using the Gateway system (Invitrogen, catalog#11804-010 for pDEST8 and 11806-015 for pDEST10). The sequences are verified before recombinant protein expression using the Baculovirus Expression System with Gateway® Technology. The accession numbers for the subunits are as follows:
(§2) The regulatory subunits of PI3Ks are cloned into pDEST8 as un-tagged protein using the Gateway system (Catalog#11804-010). The sequences are verified before recombinant protein expression using the Baculovirus Expression System with Gateway® Technology. The accession numbers for the subunits are as follows:
(§3) For expression of the p110 complexes, the p85 (MOI of 4) is co-infected with p110 alpha, beta, and delta respectively (1MOI) in SF9 cells and harvested at 60 hours post co-infection. P110 gamma was infected at 1 MOI and harvested at 60 hours post infection.
(§4) For purification, PI3Ks are purified by Ni-NTA Agarose (Qiagen #30250) followed by Mono Q 10/100 GL (Ge Healthcare #17-5167-01). VPS34 is purified by Glutathione Sepharose 4 Fast Flow (GE Healthcare #17-5132-03) followed by HiTrap Q (GE Healthcare #17-1153-01).
(§5) 0.5 uL compounds in DMSO are added to wells of a 384 well microtitre plate (Corning 3575). At room temperature: 10 ul PI3K reaction buffer (50 mM Hepes, 5 mM DTT, 150 mM NaCl, 10 mM beta-glycerophosphate, 10 mM MgCl2, 0.25 mM sodium cholate and 0.001% CHAPS, pH 7.00) containing ATP (25 uM, Promega) is added followed immediately by 10 ul PI3K reaction buffer containing di-C8 PI(4,5)P2 (3.5 uM, CellSignals) and PI3Kalpha (0.4875 nM, Millennium Protein Sciences Group) and the mixture is incubated with shaking at room temperature for 30 minutes. Then 5 ul PI3K stop mix (50 mM Hepes, 5 mM DTT, 150 mM NaCl, 0.01% Tween-20, 15 mM EDTA and 25 nM biotin-PI(3,4,5)P3 (Echelon) is added to quench the reaction followed immediately by addition of 5 ul HTRF detection mix (50 mM Hepes, 5 mM DTT, 150 mM NaCl, 0.01% Tween-20, 40 mM KF, 10 nM GST:GRP-1 PH domain (Millennium Protein Sciences Group), 15 nM Streptavidin-XL (CisBio) and 0.375 nM anti-GST Eu++ antibody (CisBio) at pH 7.00). The plates are then incubated for 1 hour at room temperature with shaking and then read on a BMG PheraStar Plus reader.
(§6) 2) Human PI3K beta, delta and gamma isoforms are tested using the procedure described for PI3K alpha above but with the following changes: PI3K beta (5.25 nM), PI3K delta (0.75 nM) and PI3K gamma (5 nM). All isoforms supplied by Millennium Protein Science Group.

[4] = molecular target: T4, PI3Kdelta (Homo sapiens, UniProt O00329); assay: Human PI3K delta enzyme assay (HTRF, as for PI3K alpha); details: for inhibition at 1.11 µM: read-out: PI3Kdelta % inh; for PI3Kdelta % inh: at 1.11 μM
T4 construct: His (N); host or cells: SF9 insect cells (baculovirus)
T4 sequence (O00329 whole entry): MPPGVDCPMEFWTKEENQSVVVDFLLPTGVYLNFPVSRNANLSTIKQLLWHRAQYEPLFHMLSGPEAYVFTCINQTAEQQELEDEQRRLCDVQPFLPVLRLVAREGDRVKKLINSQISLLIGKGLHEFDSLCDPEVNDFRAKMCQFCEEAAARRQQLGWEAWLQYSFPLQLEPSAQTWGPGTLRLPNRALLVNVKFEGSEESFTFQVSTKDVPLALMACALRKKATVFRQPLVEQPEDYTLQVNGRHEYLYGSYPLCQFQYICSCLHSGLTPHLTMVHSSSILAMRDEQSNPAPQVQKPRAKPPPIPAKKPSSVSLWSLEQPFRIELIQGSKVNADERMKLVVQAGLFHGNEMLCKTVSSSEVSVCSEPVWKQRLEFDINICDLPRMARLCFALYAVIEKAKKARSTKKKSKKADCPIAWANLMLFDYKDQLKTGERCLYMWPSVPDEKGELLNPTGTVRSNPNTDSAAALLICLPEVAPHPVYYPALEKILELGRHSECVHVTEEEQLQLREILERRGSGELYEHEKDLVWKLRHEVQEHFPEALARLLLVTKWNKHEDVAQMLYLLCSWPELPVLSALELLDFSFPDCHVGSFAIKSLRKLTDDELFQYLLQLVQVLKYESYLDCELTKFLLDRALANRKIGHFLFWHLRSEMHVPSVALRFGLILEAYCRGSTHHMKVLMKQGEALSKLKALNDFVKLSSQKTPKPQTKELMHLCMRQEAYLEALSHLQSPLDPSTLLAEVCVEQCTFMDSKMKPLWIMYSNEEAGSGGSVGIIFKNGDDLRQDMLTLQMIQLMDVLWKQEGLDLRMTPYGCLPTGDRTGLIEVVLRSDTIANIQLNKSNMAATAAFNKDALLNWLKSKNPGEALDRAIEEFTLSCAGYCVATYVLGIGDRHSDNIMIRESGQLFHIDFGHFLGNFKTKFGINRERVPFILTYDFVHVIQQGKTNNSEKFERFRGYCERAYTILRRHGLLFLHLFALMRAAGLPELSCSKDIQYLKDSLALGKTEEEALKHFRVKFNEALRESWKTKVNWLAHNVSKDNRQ
T4 sequence (P27986 whole entry partner): as the sequence (P27986 whole entry partner) above
Excerpt: as §1, §2, §3, §4, §5, §6

[5] = molecular target: T5, VPS34 (Homo sapiens, UniProt Q8NEB9); assay: Human VPS34 enzyme assay (Adapta Universal Kinase Assay); details: for inhibition at 1.11 µM: 1 h, read-out: VPS34 % ihn; for VPS34 % ihn: at 1.11 μM
T5 construct: GST (N); host or cells: SF9 insect cells (baculovirus)
Method: VPS34 (accession number GB:BC033004) is cloned into pDEST20-Thombin as N-terminal GST tagged fusion proteins using the Gateway system (Invitrogen, catalog#11804-013). The sequences are verified before recombinant protein expression using the Baculovirus Expression System with Gateway® Technology.
For expression VPS34 was infected at 1MOI in SF9 cells and harvested 72 hours post infection.
For purification, VPS34 is purified by Glutathione Sepharose 4 Fast Flow (GE Healthcare #17-5132-03) followed by HiTrap Q (GE Healthcare #17-1153-01).
3) VPS34 is assayed using Adapta™ Universal Kinase Assay Kit (Invitrogen).
4) Human VPS34 enzyme assay method
100 mL compounds in DMSO are added to wells of a 384 well microtitre plate (Greiner 780076). At room temperature: 5 ul VPS34 reaction buffer (Invitrogen Assay Buffer Q (diluted 1 in 5 with nanopure water) plus 2 mM DTT and 2 mM MnCl2) containing ATP (20 uM, Promega) and 200 uM PI-PS substrate (Invitrogen PV5122) is added followed immediately by 5 ul VPS34 reaction buffer (as above) containing VPS34 (5 nM, Millennium Protein Sciences Group) and the mixture is incubated with shaking at room temperature for 1 hour. Then 5 ul VPS34 stop-detect mix (as per Invitrogen Adapta Assay kit (PV5009) instructions (contains kinase quench buffer, TR-FRET buffer, Adapta Eu anti-ADP antibody and Alexa Fluor 647 ADP tracer)) is added to quench the reaction. The plates are then incubated for 30 minutes at room temperature with shaking and then read on a BMG PheraStar Plus reader.

T1 sequence (P42336 whole entry): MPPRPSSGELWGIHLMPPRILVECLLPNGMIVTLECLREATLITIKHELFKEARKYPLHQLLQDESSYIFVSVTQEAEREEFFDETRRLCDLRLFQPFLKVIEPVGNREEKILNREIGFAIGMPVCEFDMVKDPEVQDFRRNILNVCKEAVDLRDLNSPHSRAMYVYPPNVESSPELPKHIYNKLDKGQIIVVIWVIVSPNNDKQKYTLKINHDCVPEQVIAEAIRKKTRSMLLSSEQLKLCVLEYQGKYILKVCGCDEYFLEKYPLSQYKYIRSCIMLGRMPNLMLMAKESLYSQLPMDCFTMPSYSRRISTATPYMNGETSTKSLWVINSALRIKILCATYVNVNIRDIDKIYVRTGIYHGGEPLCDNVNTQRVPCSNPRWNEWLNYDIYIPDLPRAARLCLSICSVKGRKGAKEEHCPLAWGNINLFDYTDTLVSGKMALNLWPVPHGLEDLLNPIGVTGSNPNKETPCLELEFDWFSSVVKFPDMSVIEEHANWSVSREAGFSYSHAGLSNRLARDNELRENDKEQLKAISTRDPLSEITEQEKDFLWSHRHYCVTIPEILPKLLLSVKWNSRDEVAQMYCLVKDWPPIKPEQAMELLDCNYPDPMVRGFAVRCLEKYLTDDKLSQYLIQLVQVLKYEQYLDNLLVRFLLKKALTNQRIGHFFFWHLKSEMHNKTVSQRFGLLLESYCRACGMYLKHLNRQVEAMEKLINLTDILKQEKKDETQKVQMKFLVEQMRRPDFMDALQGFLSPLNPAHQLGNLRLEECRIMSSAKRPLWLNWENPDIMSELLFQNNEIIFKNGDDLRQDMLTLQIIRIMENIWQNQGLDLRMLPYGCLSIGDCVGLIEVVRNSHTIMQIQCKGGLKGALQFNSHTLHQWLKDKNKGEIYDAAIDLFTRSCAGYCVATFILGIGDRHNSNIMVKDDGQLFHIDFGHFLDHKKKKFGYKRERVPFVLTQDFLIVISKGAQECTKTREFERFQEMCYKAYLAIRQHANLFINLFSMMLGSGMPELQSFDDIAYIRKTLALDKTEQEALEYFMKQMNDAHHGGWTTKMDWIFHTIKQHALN
T1 sequence (P27986 whole entry partner): as the sequence (P27986 whole entry partner) above

| Compound | inhibition at 1.11 µM [1] [%] | inhibition at 1.11 µM [2] [%] | IC50 [2] [nM] | inhibition at 1.11 µM [3] [%] | inhibition at 1.11 µM [4] [%] | inhibition at 1.11 µM [5] [%] | PI3Kalpha % inh [1] [%] | PI3Kbeta % inh [2] [%] | PI3Kgamma % inh [3] [%] | PI3Kdelta % inh [4] [%] | VPS34 % ihn [5] [%] |
| --- | --- | --- | --- | --- | --- | --- | --- | --- | --- | --- | --- |
| O=C1NCCC(c2ccc3ccccc3c2)c2nc(N3CCOCC3)sc21 (centres unmarked) [Compound 209] |  |  |  | 49.5 | 110 | 42.1 | 81.32 | 114.75 |  |  |  |
| O=S1(=O)NCC(O)(c2ccc(Cl)cc2)c2cc(-c3ccncc3)sc21 (single isomer, unassigned) [Compound 9, 4-(4-chlorophenyl)-6-pyridin-4-yl-3,4-dihydro-2H-thieno[3,2-e][1,2]thiazin-4-ol 1,1-dioxide] | 3.6 |  | 100 to 1000 |  |  |  |  | 67.200 | 3.300 | 41.900 | −2.200 |
| COC(=O)[C@@H]1C(=O)c2sc(-c3ccncc3)cc2[C@H]1c1ccc(Cl)cc1 (relative stereo) [Compound 29, trans-methyl 4-(4-chlorophenyl)-6-oxo-2-(pyridin-4-yl)-5,6-dihydro-4H-cyclopenta[b]thiophene-5-carboxylate] | 6 | 87.8 | 100 to 1000 | 4.6 | 20.9 | 1.4 |  |  |  |  |  |
| N#Cc1c(N2CCOCC2)sc2c1C(c1ccc3ccccc3c1)CCNC2=O (centres unmarked) [Compound 188] | 102 | 117 |  | 62.3 | 110 | 12.9 |  |  |  |  |  |
| Cc1nn2ccccc2c1-c1nc2c(s1)C(=O)CCC2c1ccc(Cl)cc1 (centres unmarked) [Compound 20, 4-(4-chlorophenyl)-2-(2-methylpyrazolo[1,5-a]pyridin-3-yl)-5,6-dihydro-1,3-benzothiazol-7(4H)-one] | 23.6 | 68.2 | 100 to 1000 | 6.6 | 60.4 | 0.9 |  |  |  |  |  |
| O=C1NCCC(c2ccc(Cl)c(Cl)c2)c2nc(N3CCOCC3)sc21 (centres unmarked) [Compound 173] | 24.1 | 103 |  | 41.5 | 110 | 41.8 |  |  |  |  |  |
| N#Cc1c(N2CCOCC2)sc2c1C(c1c(F)cc(Cl)cc1F)CCNC2=O (centres unmarked) [Compound 155] | 64.7 | 113 |  | 42.6 | 104 | 11.6 |  |  |  |  |  |
| N#Cc1c(N2CCOCC2)sc2c1C(c1ccc(Cl)cc1)NC2=O (centres unmarked) [Compound 134, 4-(4-chlorophenyl)-2-(morpholin-4-yl)-6-oxo-5,6-dihydro-4H-thieno[2,3-c]pyrrole-3-carbonitrile] | 33 | 93.8 |  | 32.2 | 76.5 | 9.44 |  |  |  |  |  |
| CC1(C)C(=O)c2sc(N3CCOCC3)cc2C1c1ccc(Cl)cc1 (centres unmarked) [Compound 161, 4-(4-chlorophenyl)-5,5-dimethyl-2-morpholino-4H-cyclopenta[b]thiophen-6(5H)-one] | 12.1 | 92.6 |  | 19.3 | 59.3 | 10.8 |  |  |  |  |  |

Second part, the molecule after the results:

| inhibition at 1.11 µM [1] [%] | inhibition at 1.11 µM [2] [%] | IC50 [2] [nM] | inhibition at 1.11 µM [3] [%] | inhibition at 1.11 µM [4] [%] | inhibition at 1.11 µM [5] [%] | PI3Kalpha % inh [1] [%] | PI3Kbeta % inh [2] [%] | PI3Kgamma % inh [3] [%] | PI3Kdelta % inh [4] [%] | VPS34 % ihn [5] [%] | Compound |
| --- | --- | --- | --- | --- | --- | --- | --- | --- | --- | --- | --- |
| 9.4 | 73.2 | 100 to 1000 | 31 | 69 | -6 |  |  |  |  |  | Clc1ccc(C2Cc3cn[nH]c3-c3sc(-c4ccncc4)cc32)cc1 (centres unmarked) [Compound 12, 5-(4-chlorophenyl)-7-pyridin-4-yl-4,5-dihydro-1H-thieno[3,2-g]indazole] |
|  |  |  |  |  |  | 6.34 | 94.95 | 11.17 | 36.03 | −0.21 | O=C1NCC(c2ccc(Cl)cc2)c2cc(-c3ccncc3)sc21 (centres unmarked) [Compound 156] |
| 27 | 97.9 | < 100 | 14 | 70.7 | 10.1 |  |  |  |  |  | Clc1ccc(C2CCc3cn[nH]c3-c3sc(-c4ccncc4)cc32)cc1 (centres unmarked) [Compound 6, 6-(4-chlorophenyl)-8-pyridin-4-yl-1,4,5,6-tetrahydrothieno[3′,2′:6,7]cyclohepta[1,2-c]pyrazole] |
| 6.07 |  | < 100 |  |  | 9.1 |  | 111.967 | 24.700 | 79.150 |  | O=C1NCCC(c2ccc(Cl)cc2)c2cc(-c3ccncc3)sc21 (single isomer, unassigned) [Compound 21, 4-(4-chlorophenyl)-2-pyridin-4-yl-4,5,6,7-tetrahydro-8H-thieno[2,3-c]azepin-8-one] |
| 0.2 | 71 | 100 to 1000 | 6.7 | 32.4 | 0.1 |  |  |  |  |  | CC1(C)CC(=O)c2sc(-c3ccncc3)cc2C1c1ccc(Cl)cc1 (centres unmarked) [Compound 10, 4-(4-chlorophenyl)-5,5-dimethyl-2-pyridin-4-yl-5,6-dihydro-1-benzothiophen-7(4H)-one] |
| 18.8 | 104 | < 100 | 21.5 | 53.8 | -4.1 |  |  |  |  |  | O/N=C1/CCC(c2ccc(Cl)cc2)c2cc(-c3ccncc3)sc21 (centres unmarked) [Compound 18, (7Z)-4-(4-chlorophenyl)-2-pyridin-4-yl-5,6-dihydro-1-benzothiophen-7(4H)-one oxime] |
| 49.8 | 100 | < 100 | 63.4 | 103 | 29.3 |  |  |  |  |  | CC(=O)Nc1cc(-c2cc3c(s2)C(=O)NCCC3c2ccc(Cl)cc2)ccn1 (centres unmarked) [Compound 1, N-{4-[4-(4-chlorophenyl)-8-oxo-5,6,7,8-tetrahydro-4H-thieno[2,3-c]azepin-2-yl]pyridin-2-yl}acetamide] |

Source: patent publication US8765746B2 (Millennium Pharmaceuticals, Inc., priority 2010, dated 2014)
